Molecules are shown by their SMILES.

Results on one compound are retold here after patent US10966426B2, “Herbicidal compositions comprising phenylpyrimidines” (BASF SE, priority 2016, dated 2021).

Common to all, as to type: in vivo
Experiment [1] relates to Stellaria media. As to the kind of experiment: greenhouse pre-emergence treatment, STEME. The settings on record: chlorotoluron solo 250 gai/ha, 20 DAT. The method, boiled down: (§1)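 Damage rated on 0 to 100 scale (0 = normal growth, 100 = no emergence or total above-ground kill) after 2-4 weeks at species-dependent 10-25° C or 20-35° C. Seeds sown per species in loamy sand, ~3.0% humus, treated right after sowing with aqueous spray of single actives or 10% emulsion-concentrate mixtures, then hooded; additive expectation by Colby.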

Experiment [2] deals with Apera spica-venti. As to the kind of experiment: greenhouse pre-emergence treatment, APESV. The settings on record: 20 DAT. The method, boiled down:
as §1

In experiment [3] the test system is Brachiaria decumbens. As to the kind of experiment: greenhouse pre-emergence treatment, BRADC. The following applies: Urochloa decumbens, 480 h, BRADC, chlorotoluron solo 500 gai/ha, 20 DAT. The method, boiled down: as §1
The subject of experiment [4] is Papaver rhoeas. As to the kind of experiment: greenhouse post-emergence treatment, PAPRH. The following applies: Papaver rhoeas, 480 h, PAPRH, 20 DAT. The method, boiled down: (§2)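 Scale 0–100 damage rating (100 = complete destruction of above-ground parts, 0 = normal growth), read 2 to 4 weeks after post-emergence application of aqueous spray liquor to plants 3–15 cm tall.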

Experiment [5] has as its system Digitaria sanguinalis. As to the kind of experiment: greenhouse pre-emergence treatment, DIGSA. The settings on record: Digitaria sanguinalis, 480 h, DIGSA, 20 DAT. The method, boiled down: as §1
In experiment [6] the test system is Avena fatua. Kind of experiment: greenhouse pre-emergence treatment, AVEFA. The settings on record: Avena fatua, 480 h, AVEFA, chlorotoluron solo 62.5 gai/ha, 20 DAT. In outline:
as §1

The test system of experiment [7] is Bromus sterilis. As to the kind of experiment: greenhouse pre-emergence treatment, BROST. The settings on record: Bromus sterilis, 480 h, BROST, 20 DAT. In outline: as §1
Experiment [8] concerns Galium aparine. As to the kind of experiment: greenhouse post-emergence treatment, GALAP. The following applies: Galium aparine, 480 h, GALAP, 20 DAT. The method, boiled down:
as §2

Experiment [9] deals with Ambrosia elatior. Kind of experiment: greenhouse pre-emergence treatment, AMBEL. The settings on record: Ambrosia artemisiifolia, 480 h, AMBEL, 20 DAT. In outline:
as §1

Experiment [10] deals with Apera spica-venti. As to the kind of experiment: greenhouse post-emergence treatment, APESV. The following applies: APESV, 20 DAT. In outline: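 Mixtures formulated as 10% by weight emulsion concentrates, applied in water post-emergence to plants of 3–15 cm. Cool-season species held at 10-25° C., warm-season at 20-35° C.; rating 0 (no damage) to 100 (destruction).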
The test system of experiment [11] is Helianthus annuus. As to the kind of experiment: greenhouse pre-emergence treatment, HELAN. The settings on record: Helianthus annuus, 480 h, HELAN, chlorotoluron solo 500 gai/ha, 20 DAT. The method, boiled down: as §1

Turning to `Cc1ccc(NC(=O)N(C)C)cc1Cl` [chlorotoluron], the “% activity” value is on record as 65% in [1]; 55% in experiment [2] (chlorotoluron solo 62.5 gai/ha); 65% in experiment [2] (chlorotoluron solo 250 gai/ha); 65% in experiment [2] (chlorotoluron solo 500 gai/ha); 25% in experiment [10] (chlorotoluron solo 62.5 gai/ha); 55% in experiment [10] (chlorotoluron solo 125 gai/ha). Further, the pest or weed control at 500 g/ha in experiment [3] was found to be 0%; in experiment [4] (chlorotoluron solo 500 gai/ha, read-out: % activity), 25%; in experiment [5] (chlorotoluron solo 500 gai/ha), 65%; in experiment [7] (chlorotoluron solo 500 gai/ha) it was 0%; in experiment [8] (chlorotoluron solo 500 gai/ha), 70%; in experiment [9] (chlorotoluron solo 500 gai/ha) it was 40%. Besides, the pest or weed control at 62.5 g/ha in experiment [4] (chlorotoluron solo 62.5 gai/ha), in experiment [6] and in experiment [7] (chlorotoluron solo 62.5 gai/ha) was 0% throughout. Further, the pest or weed control at 125 g/ha in experiment [4] (chlorotoluron solo 125 gai/ha, read-out: % activity) came out at 0%; in [5] (chlorotoluron solo 125 gai/ha) it was 0%; in experiment [9] (chlorotoluron solo 125 gai/ha), 0%. Moreover, the pest or weed control at 250 g/ha in experiment [4] (chlorotoluron solo 250 gai/ha, read-out: % activity) stood at 20%; in experiment [7] (chlorotoluron solo 250 gai/ha) it was 0%; in [8] (chlorotoluron solo 250 gai/ha) it was 65%. For the same compound, the plant injury at 500 g/ha in experiment [11] worked out at 10%.

One may read the plant injury as the degree to which the test organism was suppressed or injured, in per cent.
